Data: patent US8518957B2, “Methanocarba adenosine derivatives, pharmaceutical compositions, and method of reducing intraocular pressure” (The United States of America, as represented by the …, priority 2009, dated 2013)

Assays:
human A3AR = molecular target: T1, human A3AR (Homo sapiens, UniProt P0DMS8); experiment: Radioligand binding at human A3 AR ([125I]I-AB-MECA, membranes of CHO cells); conditions: Example 7; agonist radioligand [125I]47; read-out: AR Affinity Ki, nM, A3
T1 construct: expressed in transfected cells
T1 sequence (P0DMS8 1-318): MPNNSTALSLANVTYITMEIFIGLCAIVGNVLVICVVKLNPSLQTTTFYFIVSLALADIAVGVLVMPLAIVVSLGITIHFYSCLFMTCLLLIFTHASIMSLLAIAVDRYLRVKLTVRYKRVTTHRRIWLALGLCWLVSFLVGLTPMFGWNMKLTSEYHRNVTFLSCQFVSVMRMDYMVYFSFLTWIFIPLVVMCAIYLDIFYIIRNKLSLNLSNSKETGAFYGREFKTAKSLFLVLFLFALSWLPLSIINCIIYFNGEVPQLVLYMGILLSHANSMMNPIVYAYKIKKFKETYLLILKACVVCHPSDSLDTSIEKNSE
Method: Test compounds were prepared as 5 mM stock solutions in DMSO and stored frozen at −20° C.
(§1) CHO cells stably expressing the recombinant hA1 and hA3Rs, and HEK-293 cells stably expressing the hA2AAR were cultured in Dulbecco's modified Eagle medium (DMEM) and F12 (1:1) supplemented with 10% fetal bovine serum, 100 units/mL penicillin, 100 μg/mL streptomycin, and […] glutamine. In addition, 800 μg/mL geneticin was added to the A2A media, while 500 μg/mL hygromycin was added to the A1 and A3 media. After harvesting, cells were homogenized and suspended in PBS. Cells were then centrifuged at 240 g for 5 min, and the pellet was resuspended in 50 mM Tris-HCl buffer (pH 7.5) containing 10 mM MgCl2. The suspension was homogenized and was then ultra-centrifuged at 14,330 g for 30 min at 4° C. The resultant pellets were resuspended in Tris buffer, incubated with adenosine deaminase (3 units/mL) for 30 min at 37° C. The suspension was homogenized with an electric homogenizer for 10 sec, pipetted into 1 mL vials and then stored at −80° C. until the binding experiments were conducted. The protein concentration was measured using the BCA Protein Assay Kit from Pierce Biotechnology, Inc. (Rockford, Ill.).
Into each tube in the binding assay was added 50 μL of increasing concentrations of the test ligand in Tris-HCl buffer (50 mM, pH 7.5) containing 10 mM MgCl2, 50 μl, of the appropriate agonist radioligand, and finally 100 μL of membrane suspension. […] For the A2AAR (20 μg/tube) the radioligand used was [^3H]37 (10 nM). […] Nonspecific binding was determined using a final concentration of 10 μM unlabeled 36 diluted with the buffer. The mixtures were incubated at 25° C. for 60 min in a shaking water bath. Binding reactions were terminated by filtration through Brandel GF/B filters under a reduced pressure using a M-24 cell harvester (Brandel, Gaithersburg, Md.). Filters were washed three times with 3 mL of 50 mM ice-cold Tris-HCl buffer (pH 7.5). […] Filters for A3AR binding were counted using a Packard Cobra II γ-counter. The Ki values were determined using GraphPad Prism for all assays.
Test compounds were prepared as 5-mM stock solutions in DMSO and stored frozen at −20° C.
(§2) Chinese hamster ovary (CHO) cells were generated by stably expressing the recombinant hA1 and hA3 and human embryonic kidney (HEK) 293 cells stably expressing the hA2AAR in DMEM and F12 (1:1) supplemented with 10% fetal bovine serum, 100 units/mL penicillin, 100 μg/mL streptomycin, and 2 μmol/mL glutamine. 800 μg/mL Geneticin were added to the A2A media and 500 μg/mL hygromycin to the A1 and A3 media. After harvesting the cells, they were homogenized with an electric homogenizer for 10 sec, pipetted them into 1-mL vials, and then stored them at −80° C. until the binding experiments were conducted. The protein concentration was measured with a BCA Protein Assay Kit from Pierce Biotechnology (Rockford, Ill.).
Each tube in the binding assay contained 50 μL of increasing concentrations of the test ligand in Tris-HCl buffer (50 mM, pH 7.5) containing 10 mM MgCl2, 50 μL of the appropriate agonist radioligand, and 100 μL membrane suspension, added sequentially. […] For the A2AAR (20 μg/tube), the radioligand [^3H]CGS21680 was used (−10 nM). […] The mixtures were incubated at 25° C. for 60 min in a shaking water bath. The binding reactions were terminated by filtration through Brandel GF/B filters under a reduced pressure with a M-24 cell harvester (Brandel, Gaithersburg, Md.). Filters were washed three times with 3 mL 50-mM ice-cold Tris-HCl buffer (pH 7.5). […] The filters were counted for A3AR binding with a Packard Cobra II γ-counter (PerkinElmer). The Ki values were determined with GraphPad Prism for all assays.

hA2AAR = molecular target: T2, hA2AAR (Homo sapiens, UniProt P29274); experiment: Radioligand binding at human A2A AR ([3H]CGS21680, membranes of HEK-293 cells)
T2 construct: expressed in transfected cells
Method: (§3) [^3H](2-[p-(2-Carboxyethyl)phenyl-ethylamino]-5′-N-ethylcarboxamido-adenosine) (37, [^3H]CGS21680, 40.5 Ci/mmol) and [^125I]N^6-(4-amino-3-iodobenzyl)adenosine-5′-N-methyluronamide (38, [^125I]I-AB-MECA, 2200 Ci/mmol) were purchased from Perkin-Elmer Life and Analytical Science (Boston, Mass.). Test compounds were prepared as 5 mM stock solutions in DMSO and stored frozen at −20° C.
as §1
(§4) Into each tube in the binding assay was added 50 μL of increasing concentrations of the test ligand in Tris-HCl buffer (50 mM, pH 7.5) containing 10 mM MgCl2, 50 μl, of the appropriate agonist radioligand, and finally 100 μL of membrane suspension. For the A1AR (22 μg of protein/tube) the radioligand used was [^3H]36 (final concentration of 3.5 nM). For the A2AAR (20 μg/tube) the radioligand used was [^3H]37 (10 nM). For the A3AR (21 μg/tube) the radioligand used was [^125I]38 (0.34 nM). Nonspecific binding was determined using a final concentration of 10 μM unlabeled 36 diluted with the buffer. The mixtures were incubated at 25° C. for 60 min in a shaking water bath. Binding reactions were terminated by filtration through Brandel GF/B filters under a reduced pressure using a M-24 cell harvester (Brandel, Gaithersburg, Md.). Filters were washed three times with 3 mL of 50 mM ice-cold Tris-HCl buffer (pH 7.5). Filters for A1 and A2AAR binding were placed in scintillation vials containing 5 mL of Hydrofluor scintillation buffer and counted using a Perkin Elmer Liquid Scintillation Analyzer (Tri-Carb 2810TR). Filters for A3AR binding were counted using a Packard Cobra II γ-counter. The Ki values were determined using GraphPad Prism for all assays.
(§5) [^3H](2-[p-(2-carboxyethyl)phenyl-ethylamino]-5′-N-ethylcarboxamido-adenosine) ([^3H]CGS21680, 40.5 Ci/mmol) and [^125I]N^6-(4-amino-3-iodobenzyl)adenosine-5′-N-methyluronamide ([^125I]I-AB-MECA, 2200 Ci/mmol) were purchased from PerkinElmer. Test compounds were prepared as 5-mM stock solutions in DMSO and stored frozen at −20° C.
as §2, with “Ill.). […]” for “Ill.).”

human A1 AR = molecular target: T3, human A1 AR (Homo sapiens, UniProt P30542); experiment: Radioligand binding at human A1 AR ([3H]NECA, membranes of CHO cells); conditions: for Ki: Example 7, agonist radioligand [3H]45, read-out: AR Affinity Ki, nM, A1
T3 construct: expressed in transfected cells
T3 sequence (P30542 1-326): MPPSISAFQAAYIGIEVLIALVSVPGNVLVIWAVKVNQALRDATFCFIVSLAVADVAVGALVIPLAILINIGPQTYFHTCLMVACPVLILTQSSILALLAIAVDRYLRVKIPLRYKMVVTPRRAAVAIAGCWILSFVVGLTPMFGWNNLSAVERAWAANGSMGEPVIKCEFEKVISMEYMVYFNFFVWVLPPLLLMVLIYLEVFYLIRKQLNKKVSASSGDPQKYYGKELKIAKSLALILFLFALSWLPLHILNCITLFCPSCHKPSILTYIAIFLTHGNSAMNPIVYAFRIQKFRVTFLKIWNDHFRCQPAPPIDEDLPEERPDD
Method: as §3, §1, §4, §5
as §2, with “Ill.). […]” for “Ill.).”

T2 sequence (P29274 whole entry): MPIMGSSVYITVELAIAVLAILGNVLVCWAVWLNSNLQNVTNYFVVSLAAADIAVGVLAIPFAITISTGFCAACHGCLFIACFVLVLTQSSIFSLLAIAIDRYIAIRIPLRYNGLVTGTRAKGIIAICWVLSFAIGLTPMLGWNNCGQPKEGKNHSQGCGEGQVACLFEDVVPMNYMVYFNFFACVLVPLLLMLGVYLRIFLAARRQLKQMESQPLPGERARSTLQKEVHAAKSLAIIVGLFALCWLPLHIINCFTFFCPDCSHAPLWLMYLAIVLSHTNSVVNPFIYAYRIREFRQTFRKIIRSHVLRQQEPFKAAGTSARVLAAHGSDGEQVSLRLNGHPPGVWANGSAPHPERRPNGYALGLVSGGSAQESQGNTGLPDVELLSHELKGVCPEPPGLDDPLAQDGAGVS

Row | Structure (SMILES) | Ki (human A3AR) [nM] | inhibition at 10 µM (hA2AAR) [%] | Ki (human A1 AR) [nM] | inhibition at 10 µM (human A1 AR) [%]
1 | CNC(=O)[C@@]12C[C@@H]1[C@@H](n1cnc3c(NCc4cccc(C#CCCCCc5cn(C67CC8CC(CC(C8)C6)C7)nn5)c4)nc(Cl)nc31)[C@H](O)[C@@H]2O [Compound 206, (1S,2R,3S,4R,5S)-4-(2-Chloro-6-(3-(6-(1-(adamantyl)-1H-1,2,3-triazol-4-yl)hex-1-ynyl)benzylamino)-9H-purin-9-yl)-2,3-dihydroxybicyclo[3.1.0]hexane-1-carboxylic acid-N-methylamide] | 21.8 ± 5.3 | 17 | 1720 ± 240 | 
2 | C#CCCCCC#Cc1cccc(CNc2nc(Cl)nc3c2ncn3[C@H]2[C@H](O)[C@H](O)[C@@H]3C[C@@H]32)c1 [Compound 212, (1R,2R,3S,4R,5S)-4-(2-Chloro-6-(3-(octa-1,7-diynyl)benzylamino)-9H-purin-9-yl) bicyclo[3.1.0]hexane-2,3-diol] | 2500 ± 640 | 44.1 |  | 48.5
3 | O=[N+]([O-])c1cc(-n2cc(CCCCC#Cc3cccc(CNc4nc(Cl)nc5c4ncn5[C@H]4[C@H](O)[C@H](O)[C@@H]5C[C@@H]54)c3)nn2)ccc1F [Compound 215, (1R,2R,3S,4R,5S)-4-(2-Chloro-6-(3-(6-(1-(4-fluoro-3-nitrophenyl)-1H-1,2,3-triazol-4-yl)hex-1-ynyl)benzylamino)-9H-purin-9-yl)-bicyclo[3.1.0]hexane-2,3-diol] | 933 ± 720 | 8.2 |  | 24.3
4 | O=[N+]([O-])c1cc(-n2cc(CCCCCC#Cc3cccc(CNc4nc(Cl)nc5c4ncn5[C@H]4[C@H](O)[C@H](O)[C@@H]5C[C@@H]54)c3)nn2)ccc1F [Compound 216, (1R,2R,3S,4R,5S)-4-(2-Chloro-6-(3-(7-(1-(4-fluoro-3-nitrophenyl)-1H-1,2,3-triazol-4-yl)hept-1-ynyl)benzylamino)-9H-purin-9-yl)bicyclo[3.1.0]hexane-2,3-diol] | 521 ± 250 | 18 |  | 29.5

The next lines start with the values.

Row | Ki (human A3AR) [nM] | inhibition at 10 µM (hA2AAR) [%] | Ki (human A1 AR) [nM] | inhibition at 10 µM (human A1 AR) [%] | Structure (SMILES)
5 | 71.7 ± 54 | 28.6 | 2420 ± 230 |  | CNC(=O)[C@@]12C[C@@H]1[C@@H](n1cnc3c(NCc4cccc(C#CCCCCc5cn(-c6ccc(F)c([N+](=O)[O-])c6)nn5)c4)nc(Cl)nc31)[C@H](O)[C@@H]2O [Compound 204, (1S,2R,3S,4R,5S)-4-(2-Chloro-6-(3-(6-(1-(4-fluoro-3-nitrophenyl)-1H-1,2,3-triazol-4-yl)hex-1-ynyl)benzylamino)-9H-purin-9-yl)-2,3-dihydroxybicyclo[3.1.0]hexane-1-carboxylic acid-N-methylamide]
6 | 30.1 ± 13 | 25.2 | 1290 ± 290 |  | CNC(=O)[C@@]12C[C@@H]1[C@@H](n1cnc3c(NCc4cccc(C#CCCCCCc5cn(-c6ccc(F)c([N+](=O)[O-])c6)nn5)c4)nc(Cl)nc31)[C@H](O)[C@@H]2O [Compound 205, (1S,2R,3S,4R,5S)-4-(2-Chloro-6-(3-(7-(1-(4-fluoro-3-nitrophenyl)-1H-1,2,3-triazol-4-yl)hept-1-ynyl)benzylamino)-9H-purin-9-yl)-2,3-dihydroxybicyclo[3.1.0]hexane-1-carboxylic acid-N-methylamide]
7 | 897 ± 20 | 16.7 |  | 11 | O=[N+]([O-])c1cc(-n2cc(CCCC#Cc3cccc(CNc4nc(Cl)nc5c4ncn5[C@H]4[C@H](O)[C@H](O)[C@@H]5C[C@@H]54)c3)nn2)ccc1F [Compound 214, (1R,2R,3S,4R,5S)-4-(2-Chloro-6-(3-(5-(1-(4-fluoro-3-nitrophenyl)-1H-1,2,3-triazol-4-yl)pent-1-ynyl)benzylamino)-9H-purin-9-yl)-bicyclo[3.1.0]hexane-2,3-diol]
8 | 9.1 ± 1.9 | 19.3 |  | 38 | CNC(=O)[C@@]12C[C@@H]1[C@@H](n1cnc3c(NCc4cn(-c5ccc(F)c([N+](=O)[O-])c5)nn4)nc(Cl)nc31)[C@H](O)[C@@H]2O [Compound 219a, (1S,2R,3S,4R,5S)-4-(2-Chloro-6-((1-(4-fluoro-3-nitrophenyl)-1H-1,2,3-triazol-4-yl)methylamino)-9H-purin-9-yl)-2,3-dihydroxy-N-methylbicyclo[3.1.0]hexane-1-carboxamide]
